Data reported in patent US20110275569A1, “PROTEASES TARGETING AGENTS” (CONSIGLIO NAZIONALE DELLE RICERCHE, priority 2008, published 2011).
Like-named read-outs stand apart in the source and are kept apart here. One block for each substance: values may come before it.

How the values were obtained:
[1] = molecular target: T1, porcine acylamino-acid-releasing enzyme (AARE or APEH) (Sus scrofa, UniProt P19205); test: Inhibition of porcine acylamino-acid-releasing enzyme; format: biochemical; details: for IC50: IC50 towards porcine acylamino-acid-releasing enzyme (AARE or APEH)
T1 sequence (P19205 1-732): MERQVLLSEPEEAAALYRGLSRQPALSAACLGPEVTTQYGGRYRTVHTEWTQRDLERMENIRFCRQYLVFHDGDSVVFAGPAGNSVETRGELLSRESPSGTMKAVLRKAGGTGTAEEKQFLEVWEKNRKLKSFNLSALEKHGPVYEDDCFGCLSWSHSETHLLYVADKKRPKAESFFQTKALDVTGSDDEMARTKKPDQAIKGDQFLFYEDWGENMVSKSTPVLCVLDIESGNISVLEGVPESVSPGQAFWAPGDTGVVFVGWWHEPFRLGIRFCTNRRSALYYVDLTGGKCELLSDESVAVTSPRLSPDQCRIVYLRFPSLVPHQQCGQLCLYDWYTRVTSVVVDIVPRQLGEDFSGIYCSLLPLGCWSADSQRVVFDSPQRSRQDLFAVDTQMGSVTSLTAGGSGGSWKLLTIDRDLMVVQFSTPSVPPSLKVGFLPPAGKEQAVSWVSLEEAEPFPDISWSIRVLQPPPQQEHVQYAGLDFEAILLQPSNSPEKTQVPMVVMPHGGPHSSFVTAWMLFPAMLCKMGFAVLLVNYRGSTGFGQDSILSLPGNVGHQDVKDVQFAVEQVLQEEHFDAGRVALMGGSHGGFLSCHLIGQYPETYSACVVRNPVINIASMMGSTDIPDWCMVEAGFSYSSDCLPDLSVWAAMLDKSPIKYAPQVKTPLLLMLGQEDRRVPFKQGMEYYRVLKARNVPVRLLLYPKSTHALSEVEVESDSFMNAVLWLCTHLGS
Method: The SsCEI 1 to 4 reported in the Example 1 were tested for ability to inhibit the activity of human acylamino-acid-releasing enzyme. Stock solutions (1 mM) of each lyophilized compounds were prepared in DMSO 100% and stored at 4° C. Inhibition effectiveness of each compound was determined by measuring enzyme activity both in the presence and absence of compounds. The activity of human acylamino-acid-releasing enzyme (AARE) was measured by using the chromogenic substrate N-acetyl-Ala-pNA (Bachem) (40 μM in DMSO 100%) as described above. […] Then, the substrate was added to the incubation mixture and the hydrolysis was performed for 20 min at 37° C. (FIG. 5). The data were fitted with the GraphPad Prism software. This analysis allowed the determination of IC50 values, which represent the concentrations at which the inhibition reached 50%. […] The IC50 values (See Table IV), obtained as average of 3-5 separate determinations, confirmed the utility of the compounds +of the present invention as effective AARE inhibitors.
The experiment described in example 7 has been performed using the porcine acylamino-acid-releasing enzyme. […] The efficiency of SsCEI 4 can be ascribed to the APEH preference for an alanine residue, with respect to the leucine, at the P1 site, assuming that the SsCEI-APEH association occurs in a substrate-like manner

[2] = test system: proteasome in Caco-2 (human colon carcinoma) cells; test: Proteasome activity in Caco-2 cells treated with peptides for 48 h; format: cell-based; details: for proteasomal activity in Caco-2 cells (in words): differentiated Caco-2 cells
Method: (§1) The proteasome down-regulation via APEH inhibition has been investigated. On the basis of the hypothesis that APEH can be used as a target to indirectly control/modulate proteasome functions in tumoral cells, an in vitro approach using the SsCEI 2, SsCEI 3 and SsCEI 4 peptides in the Caco-2 (human colon carcinoma) cell line has been carried out. To this end, differentiated Caco-2 cells were treated with peptides or with a specific proteasome inhibitor (MG132), for 48 h. […] The results were compared to those obtained in the cell-free assays, where a purified proteasome fraction was used.

APEH in Caco-2 cells = test: APEH activity in Caco-2 cells treated with peptides; format: cell-based, human; details: 48 h, dose-dependent decrease
Method: as §1

proteasome = test: Cell-free proteasome assay with purified proteasome fraction; format: biochemical
Method: as §1

caspase-3 = test: Caspase-3 activity after peptide treatment of Caco-2 cells; format: cell-based, human
Text: To elucidate the molecular mechanisms associated with the inhibition of the proteasome, the effects of treatments with the SsCEI 2 and SsCEI 4 peptides on the activation of caspases have been evaluated.

Caco-2 cells = test: Cytotoxicity by lactate dehydrogenase (LDH) activity in cell-culture media; format: cell-based, human; details: up to the highest concentration used (200 μM)

Substance: H-TILAEIKNINAD-NH2 [SsCEI 4, TILAEIKNINAD]
IC50 [1]: 35 ± 0.8 µM
type of inhibition of porcine APEH ([1]; Lineweaver-Burk plot): competitive inhibitor
Ki ([1]; porcine APEH, Lineweaver-Burk plot, read-out: Ki APEH): 4 ± 0.8 µM
residual proteasome activity with respect to untreated cultures ([2]; Caco-2 cells, dose-dependent decrease): up to 45%
proteasomal activity in Caco-2 cells (in words) [2]: markedly reduced proteasomal activity
residual APEH activity with respect to untreated cultures (APEH in Caco-2 cells): up to 45%
proteasome activity in cell-free systems (proteasome): did not affect proteasome activity
caspase-3 activity (caspase-3): increased in a dose dependent manner
cytotoxic effects, LDH activity levels in cell-culture media (Caco-2 cells): not associated with any cytotoxic effects

proteasomal activity in Caco-2 cells (in words) [2]: markedly reduced proteasomal activity
Substance: H-TILLEIKNINAD-NH2 [SsCEI 2, TILLEIKNINAD]
cytotoxic effects, LDH activity levels in cell-culture media (Caco-2 cells): not associated with any cytotoxic effects

Substance: H-YAIDTILAEIKNINAD-NH2 [SsCEI 3, YAIDTILAEIKNINAD]
Ki [1]: 20 ± 0.4 µM
IC50 [1]: 20 ± 0.4 µM
proteasomal activity in Caco-2 cells (in words) [2]: unable to affect proteasome
